Measurements published in patent US5985885A, “Quinazoline-4-amino-2-(piperidine-1-yl-4-substituted) derivatives having antihypertensive activity, a method for their preparation and their pharmaceutical use” (priority 1996, dated 1999).
pIC50: −log10 of the molar value. Counter-ions that a name gives are not always drawn. Like-named read-outs stand apart in the source and are kept apart here. Blank lines part the entries; values can stand above or below the compound they belong to.

How the values were obtained:
[1] = test system: anaesthetised normotensive rat; assay: Hypotensive activity in the anaesthetised normotensive rat (IV); type: in vivo; conditions: for ED30: Rattus norvegicus, read-out: Reduction in mean arterial pressure ED30
Protocol: In order to evaluate the in vivo activity, some of the compounds of the invention were administered (IV) in bolus form to the normotensive rat anaesthetised with urethane plus ketamine. The compounds were administered in at least three doses in experiments performed in duplicate so as to enable the calculation of ED30 values, that is, the dose in mg/kg that reduces the mean basal arterial pressure by 30%. The compounds of the invention, and several reference standards, were dissolved in dilute hydrochloric acid at a physiologically acceptable pH, and physiological solution was administered in a volume of 3 ml/kg. Evaluations were made at two time periods, that is, the intervals 0-30 min and 30-60 min after administration.

[2] = biological target: alpha1A + alpha1C adrenergic receptor (human prostate); assay: [3H]-prazosin binding in human prostate; conditions: alpha1A + alpha1C subtype, pH 7.5, 30 min, 25° C., read-out: Inhibition of the binding of [3H]-prazosin IC50
[3] = biological target: T1, alpha1A adrenergic receptor (rat GSM) (Rattus norvegicus, UniProt P43140); assay: [3H]-prazosin binding in rat submaxillary glands (GSM); conditions: alpha1A subtype, pH 7.4, 45 min, 25° C., read-out: Inhibition of the binding of [3H]-prazosin IC50
T1 sequence (P43140 1-466): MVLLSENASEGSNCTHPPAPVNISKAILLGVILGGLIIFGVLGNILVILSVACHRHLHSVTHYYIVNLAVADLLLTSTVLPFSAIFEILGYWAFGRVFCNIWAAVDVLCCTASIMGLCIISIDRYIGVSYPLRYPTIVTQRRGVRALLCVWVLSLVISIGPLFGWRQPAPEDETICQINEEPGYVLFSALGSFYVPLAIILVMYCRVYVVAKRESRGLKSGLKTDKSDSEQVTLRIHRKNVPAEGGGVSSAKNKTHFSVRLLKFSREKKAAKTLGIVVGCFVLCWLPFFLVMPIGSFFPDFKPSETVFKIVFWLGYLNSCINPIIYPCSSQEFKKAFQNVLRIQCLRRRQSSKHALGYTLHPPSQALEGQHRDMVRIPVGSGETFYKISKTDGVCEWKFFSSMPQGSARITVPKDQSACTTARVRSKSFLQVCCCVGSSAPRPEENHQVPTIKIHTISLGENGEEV

[4] = test system: spontaneously hypertensive (SHR) rat; assay: Anti-hypertensive activity in the spontaneously hypertensive (SHR) rat (oral); type: in vivo; conditions: for ED20: Rattus norvegicus, 2 h, 0-120 min, NC: not calculable, read-out: Systolic pressure ED20 (0-120 min)
Description: Animals having a mean basal systolic pressure of not less than 180 mmHg were used.

[5] = biological target: T2, 5-HT2 receptors (isolated rabbit aorta) (Oryctolagus cuniculus, UniProt G1SYA7); assay: Antagonism of serotonin-induced contraction of isolated rabbit aorta; conditions: for pIC50: isolated rabbit aorta, 37° C., compound 10 min before agonist, limits (p < 0.05)
T2 construct: Four rings formed from rabbit aorta were joined together to form a chain; from tissue; host or cells: isolated rabbit aorta rings
T2 sequence (G1SYA7 1-469): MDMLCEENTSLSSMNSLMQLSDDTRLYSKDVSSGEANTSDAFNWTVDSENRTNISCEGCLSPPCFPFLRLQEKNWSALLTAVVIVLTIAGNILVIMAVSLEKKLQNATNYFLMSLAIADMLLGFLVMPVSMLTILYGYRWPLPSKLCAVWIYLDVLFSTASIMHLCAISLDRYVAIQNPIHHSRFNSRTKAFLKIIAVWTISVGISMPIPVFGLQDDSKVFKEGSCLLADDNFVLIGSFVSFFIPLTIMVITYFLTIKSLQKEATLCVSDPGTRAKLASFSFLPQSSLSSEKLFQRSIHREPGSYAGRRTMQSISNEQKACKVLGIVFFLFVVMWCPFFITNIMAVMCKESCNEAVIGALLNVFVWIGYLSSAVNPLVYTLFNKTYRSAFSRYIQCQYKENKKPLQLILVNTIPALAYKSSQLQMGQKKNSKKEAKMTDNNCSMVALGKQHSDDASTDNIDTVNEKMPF
Protocol: The antagonist activity of some of the compounds of the invention on the contractile activity of seratonin on isolated rabbit aorta, effected principally by way of the 5-HT2 receptors, is reported here by way of example. The method of Feniuk et al [Br. J. Pharmacol. (1985), 86, 697-704] was used, with slight modifications. Four rings formed from rabbit aorta were joined together to form a chain; the preparation was placed in an isolated organ bath in the presence of Krebs at 37° C. and attached to an isometric transducer, a tension of 2 g being applied and oxygenation was carried out continuously with O2 --CO2 (95-5 v/v). A seratonin concentration(0.3 μM) was used that was capable of causing sub-maximal contraction of the preparation. […] The results obtained in this way are given in Table 4 below which, for several of the compounds of the invention gives IC50 values calculated by the regression method on a set of at least 2 experiments at 5 different concentrations for each of the compounds examined, these being compared with values obtained for several reference compounds.

[6] = biological target: T3, alpha1B adrenergic receptor (rat liver) (Rattus norvegicus, UniProt P15823); assay: [3H]-prazosin binding in rat liver
T3 sequence (P15823 1-515): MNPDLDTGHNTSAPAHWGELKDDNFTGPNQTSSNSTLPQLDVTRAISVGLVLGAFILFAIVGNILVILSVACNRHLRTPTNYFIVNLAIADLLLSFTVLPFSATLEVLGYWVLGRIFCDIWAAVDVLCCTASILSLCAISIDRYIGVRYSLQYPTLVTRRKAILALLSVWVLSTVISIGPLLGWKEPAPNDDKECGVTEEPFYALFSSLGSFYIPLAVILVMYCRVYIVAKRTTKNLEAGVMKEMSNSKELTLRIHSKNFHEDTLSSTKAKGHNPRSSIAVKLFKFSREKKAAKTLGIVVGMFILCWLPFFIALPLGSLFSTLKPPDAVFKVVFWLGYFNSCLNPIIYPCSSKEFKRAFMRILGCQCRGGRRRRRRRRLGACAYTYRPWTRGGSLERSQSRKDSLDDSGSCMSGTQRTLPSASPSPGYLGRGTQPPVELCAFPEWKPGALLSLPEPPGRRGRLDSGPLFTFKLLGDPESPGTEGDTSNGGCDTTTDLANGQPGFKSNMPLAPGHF

[7] = in vivo; conditions: rat
[8] = 0.5 h, IV bolus, interval 0-30 min
[9] = 1 h, IV bolus, interval 30-60 min

pIC50 [2]: 7.70 | pIC50 [3]: 7.74 | Cardiac frequency, max effect at 3 mg/kg ([4]; 3 mg/kg): -5.2 % vs basal | pIC50 [5]: 4.78 | pIC50 [6]: 8.28
Structure (SMILES): COc1cc2nc(N3CCC(c4cc5ccccc5o4)CC3)nc(N)c2cc1OC [Compound 8]
ED30 [1, 8]: 0.07 mg/kg | ED30 [1, 9]: 0.09 mg/kg | anti-hypertensive action (in words) [4]: about as powerful as prazosin | Systolic pressure, max effect at 3 mg/kg ([4]; 3 mg/kg): -20.2 % vs basal | ED20 [4]: 2.6 mg/kg

bioavailability ([7]; plasma, po, 15 mg/kg OS vs 1 mg/kg IV, read-out: relative bioavailability (AUC OS/AUC IV, dose corrected)): ~80% | AUC ([7]; plasma, po, OS 15 mg/kg): 3620 ng·h/mL | concentration at 0.25 h ([7]; plasma, po, OS 15 mg/kg): 230 ng/mL | concentration at 0.5 h ([7]; plasma, po, OS 15 mg/kg): 360 ng/mL | concentration at 1 h ([7]; plasma, po, OS 15 mg/kg): 480 ng/mL | concentration at 2 h ([7]; plasma, po, OS 15 mg/kg): 390 ng/mL | concentration at 3 h ([7]; plasma, po, OS 15 mg/kg, 3 h): 340 ng/mL | concentration at 4 h ([7]; plasma, po, OS 15 mg/kg, 4 h): 320 ng/mL | concentration at 6 h ([7]; plasma, po, OS 15 mg/kg, 6 h): 280 ng/mL | concentration at 8 h ([7]; plasma, po, OS 15 mg/kg, 8 h): 180 ng/mL | concentration at 12 h ([7]; plasma, po, OS 15 mg/kg, 12 h): 80 ng/mL | AUC ([7]; plasma, IV 1 mg/kg): 300 ng·h/mL | concentration at 0.083 h ([7]; plasma, IV 1 mg/kg, 0.083 h): 420 ng/mL | concentration at 0.25 h ([7]; plasma, IV 1 mg/kg): 300 ng/mL | concentration at 0.5 h ([7]; plasma, IV 1 mg/kg): 180 ng/mL | concentration at 1 h ([7]; plasma, IV 1 mg/kg): 100 ng/mL | concentration at 2 h ([7]; plasma, IV 1 mg/kg): 40 ng/mL | Plasma concentration ([7]; IV 1 mg/kg, 6 h): 0 ng/mL | concentration at 3 h ([7]; plasma, iv, 1 mg/kg): 20 ng/mL | concentration at 4 h ([7]; plasma, iv, 1 mg/kg): 10 ng/mL | concentration at 24 h ([7]; plasma, po, 15 mg/kg): 20 ng/mL | half-life ([7]; plasma, read-out: half-life, terminal elimination phase (converted)): ~6 h | pIC50 [2]: 8.30 | pIC50 [3]: 8.51 | Cardiac frequency, max effect at 3 mg/kg ([4]; 3 mg/kg): +0.9 % vs basal | pIC50 [5]: 4.26 | pIC50 [6]: 8.09
Structure (SMILES): COc1cc2nc(N3CCC(c4ccccn4)CC3)nc(N)c2cc1OC [Compound 7, 1-(4-amino-6,7-dimethoxy-2-quinazolinyl)-4-(2-pyridyl)piperidine(hydrochloride)]
ED30 [1, 8]: 0.08 mg/kg | ED30 [1, 9]: 0.09 mg/kg | anti-hypertensive action (in words) [4]: about as powerful as prazosin | Systolic pressure, max effect at 3 mg/kg ([4]; 3 mg/kg): -22.7 % vs basal | ED20 [4]: 2.2 mg/kg

pIC50 [2]: 8.35 | pIC50 [3]: 8.39 | Cardiac frequency, max effect at 3 mg/kg ([4]; 3 mg/kg): +2.7 % vs basal | pIC50 [5]: 4.05 | pIC50 [6]: 8.22
Structure (SMILES): COc1cc2nc(N3CCC(c4cccs4)CC3)nc(N)c2cc1OC [Compound 6]
ED30 [1, 8]: 0.06 mg/kg | ED30 [1, 9]: 0.08 mg/kg | Systolic pressure, max effect at 3 mg/kg ([4]; 3 mg/kg): -8.4 % vs basal

Cardiac frequency, max effect at 3 mg/kg ([4]; 3 mg/kg): +9.7 % vs basal | increase in cardiac frequency over the basal frequency ([4]; 3 mg/kg, significant): approximately 10% | pIC50 [5]: < 3.88 | 5-HT2-antagonist activity (in words) ([5]; rabbit aorta): inactive until higher doses (50 μg/ml)
Structure (SMILES): COc1cc2nc(N3CCN(C(=O)c4ccco4)CC3)nc(N)c2cc1OC [Prazosin, reference compound]
ED30 [1, 8]: 0.02 mg/kg | ED30 [1, 9]: 0.05 mg/kg | Systolic pressure, max effect at 3 mg/kg ([4]; 3 mg/kg): -20.0 % vs basal | ED20 [4]: 2.8 mg/kg

Structure (SMILES): COc1ccc(CCN(C)CCCC(C#N)(c2ccc(OC)c(OC)c2)C(C)C)cc1OC (stereo not drawn) [Verapamil, reference compound]
hypotensive activity compared with prazosin/compounds (in words) ([1]; IV bolus): less active | ED30 ([1]; iv, 0.5 h): 0.63 mg/kg | ED30 ([1]; iv, 1 h): 1.06 mg/kg | Cardiac frequency, max effect at 3 mg/kg ([4]; 3 mg/kg): +2.8 % vs basal | Systolic pressure, max effect at 3 mg/kg ([4]; 3 mg/kg): -9.0 % vs basal | reduction of arterial pressure ([4]; 3 mg/kg): ≤ 9%

pIC50 [2]: 8.11 | pIC50 [3]: 7.73 | Cardiac frequency, max effect at 3 mg/kg ([4]; 3 mg/kg): +2.1 % vs basal | pIC50 [5]: 4.43 | pIC50 [6]: 8.11
Structure (SMILES): COc1cc2nc(N3CCC(c4ccccc4OC)CC3)nc(N)c2cc1OC [Compound 2]
ED30 [1, 8]: 0.5 mg/kg | ED30 [1, 9]: 0.55 mg/kg | Systolic pressure, max effect at 3 mg/kg ([4]; 3 mg/kg): -6.4 % vs basal
